SMILES strings stand for the structures. In brackets after ≈: the same amount, converted by molar mass.

For one test, the system named is MH60. The experiment in a line: Cytotoxicity against mouse MH60 cells after 72 hrs by MTT assay. It is filed as functional, cell-based. The following applies: MH60, 72 h. In general terms: Formazan colour is commonly taken as a measure of viable cells.
A further test concerns KB. The test is described as follows: Cytotoxicity against human KB cells after 72 hrs by MTT assay. Format: functional, cell-based.

As a reminder, the IC50 is the point on the concentration scale where inhibition reaches its midpoint. Low readings indicate greater potency in that assay, high ones weaker potency in that assay. Consider `C[C@]12CC[C@H](OC=O)C[C@H]1CC[C@@H]1[C@@H]2CC[C@]2(C)[C@@H]([C@]34C=CC(=O)O[C@H]3O4)C[C@H]3O[C@]132`, for which the IC50 in the test on MH60 and in the test on KB was over 25 µg/mL throughout.
As to `C[C@]12CC[C@H](OC=O)C[C@H]1CC[C@@H]1[C@@H]2CC[C@]2(C)[C@@H]([C@@]34C=CC(=O)O[C@@H]3O4)C[C@H]3O[C@]132`, the IC50 with MH60 and in the test on KB was over 25 µg/mL in each case.
For `C[C@]12CC[C@H](O)C[C@H]1CC[C@@H]1[C@@H]2CC[C@]2(C)[C@@H]([C@@]34C=CC(=O)O[C@@H]3O4)C[C@H]3O[C@]132`, the half-maximal inhibitory concentration (IC50) in the test on MH60 was 1.82 µg/mL (≈ 4.54 µM); in the test with KB it was 10.9 µg/mL (≈ 27.2 µM).
On the same counts, the results for `C[C@]12CCC(=O)C[C@H]1CC[C@@H]1[C@@H]2CC[C@]2(C)[C@@H]([C@@]34C=CC(=O)O[C@@H]3O4)C[C@H]3O[C@]132` are 8.54 µg/mL (≈ 21.4 µM) and 18.5 µg/mL (≈ 46.4 µM).
For `C[C@]12CC[C@H](O)C[C@H]1CC[C@@H]1[C@@H]2CC[C@]2(C)[C@@H]([C@]34C=CC(=O)O[C@H]3O4)C[C@H]3O[C@]132`, in that order: 1.8 µg/mL (≈ 4.49 µM) and 8.09 µg/mL (≈ 20.2 µM).
For `C[C@]12CC[C@H](O)C[C@H]1CC[C@@H]1[C@@H]2CC[C@]2(C)[C@@H](c3ccc(=O)oc3)C[C@H]3O[C@]132` [BUFOGENIN], in that order: 10.5 µg/mL (≈ 27.3 µM) and 1.34 µg/mL (≈ 3.48 µM).

For the origin of these results see ChEMBL document CHEMBL1150114, “Isolation and structure of a 20,21-epoxybufenolide series from "Ch'an Su"” (J Nat Prod, 2002).
